Measurements from US9901582B2, “Polymorphisms in ABCB1 associated with a lack of clinical response to medicaments” (Max-Planck-Gesellschaft zur Förderung der Wisenschaften e. …, priority 2007, dated 2018).
Read-outs that look alike come from different tables or passages of the source.

Experiments:
[1] = test system: P-gp; conditions: after single administration, same mouse model; cited from earlier work
[2] = test system: P-gp; test: Organ and plasma concentrations of antidepressants in abcb1ab(−/−) knockout mice versus FVB/N wild-type controls (blood-organ barrier function); conditions: for brain concentrations, times higher in the mutant mice compared to wild-type littermates: 11 days, s.c. osmotic infusion pumps; for cerebrum concentration, abcb1ab (−/−) / kidney concentration, abcb1ab (−/−) / liver concentration, abcb1ab (−/−) / lung concentration, abcb1ab (−/−) / plasma concentration, abcb1ab (−/−) / spleen concentration, abcb1ab (−/−) / testes concentration, abcb1ab (−/−): abcb1ab(−/−) mice; for cerebrum concentration, abcb1ab (−/−) / kidney concentration, abcb1ab (−/−) / liver concentration, abcb1ab (−/−) / lung concentration, abcb1ab (−/−) / plasma concentration, abcb1ab (−/−) / spleen concentration, abcb1ab (−/−) / testes concentration, abcb1ab (−/−) / cerebrum concentration, control / kidney concentration, control / liver concentration, control / lung concentration, control / plasma concentration, control / spleen concentration, control / testes concentration, control: after 11 days s.c. via osmotic pumps; for penetration into the brain (organ/plasma concentration ratio), times higher in animals lacking P-gp than in control animals / ratio (−/−)/(+/+), cerebrum / ratio (−/−)/(+/+), kidney / ratio (−/−)/(+/+), liver / ratio (−/−)/(+/+), lung / ratio (−/−)/(+/+), plasma / ratio (−/−)/(+/+), spleen / ratio (−/−)/(+/+), testes / differences in testes/plasma ratio between knockout and control: 11 days s.c.; for penetration into the brain (organ/plasma concentration ratio), times higher in animals lacking P-gp than in control animals / differences in testes/plasma ratio between knockout and control: FIG. 1; for ratio (−/−)/(+/+), cerebrum: cerebrum concentration; for ratio (−/−)/(+/+), cerebrum / ratio (−/−)/(+/+), kidney / ratio (−/−)/(+/+), liver / ratio (−/−)/(+/+), lung / ratio (−/−)/(+/+), plasma / ratio (−/−)/(+/+), spleen / ratio (−/−)/(+/+), testes: knockout/control; for ratio (−/−)/(+/+), kidney: kidney concentration; for ratio (−/−)/(+/+), liver: liver concentration; for ratio (−/−)/(+/+), lung: lung concentration; for ratio (−/−)/(+/+), plasma: plasma concentration; for ratio (−/−)/(+/+), spleen: spleen concentration; for ratio (−/−)/(+/+), testes: testes concentration; for cerebrum concentration, control / kidney concentration, control / liver concentration, control / lung concentration, control / plasma concentration, control / spleen concentration, control / testes concentration, control: wild-type control mice
[3] = molecular target: ABCB1 (Homo sapiens, UniProt P08183); conditions: cited from earlier work; for Inducer: inducer of ABCB1
Sequence of ABCB1 (P08183 whole entry): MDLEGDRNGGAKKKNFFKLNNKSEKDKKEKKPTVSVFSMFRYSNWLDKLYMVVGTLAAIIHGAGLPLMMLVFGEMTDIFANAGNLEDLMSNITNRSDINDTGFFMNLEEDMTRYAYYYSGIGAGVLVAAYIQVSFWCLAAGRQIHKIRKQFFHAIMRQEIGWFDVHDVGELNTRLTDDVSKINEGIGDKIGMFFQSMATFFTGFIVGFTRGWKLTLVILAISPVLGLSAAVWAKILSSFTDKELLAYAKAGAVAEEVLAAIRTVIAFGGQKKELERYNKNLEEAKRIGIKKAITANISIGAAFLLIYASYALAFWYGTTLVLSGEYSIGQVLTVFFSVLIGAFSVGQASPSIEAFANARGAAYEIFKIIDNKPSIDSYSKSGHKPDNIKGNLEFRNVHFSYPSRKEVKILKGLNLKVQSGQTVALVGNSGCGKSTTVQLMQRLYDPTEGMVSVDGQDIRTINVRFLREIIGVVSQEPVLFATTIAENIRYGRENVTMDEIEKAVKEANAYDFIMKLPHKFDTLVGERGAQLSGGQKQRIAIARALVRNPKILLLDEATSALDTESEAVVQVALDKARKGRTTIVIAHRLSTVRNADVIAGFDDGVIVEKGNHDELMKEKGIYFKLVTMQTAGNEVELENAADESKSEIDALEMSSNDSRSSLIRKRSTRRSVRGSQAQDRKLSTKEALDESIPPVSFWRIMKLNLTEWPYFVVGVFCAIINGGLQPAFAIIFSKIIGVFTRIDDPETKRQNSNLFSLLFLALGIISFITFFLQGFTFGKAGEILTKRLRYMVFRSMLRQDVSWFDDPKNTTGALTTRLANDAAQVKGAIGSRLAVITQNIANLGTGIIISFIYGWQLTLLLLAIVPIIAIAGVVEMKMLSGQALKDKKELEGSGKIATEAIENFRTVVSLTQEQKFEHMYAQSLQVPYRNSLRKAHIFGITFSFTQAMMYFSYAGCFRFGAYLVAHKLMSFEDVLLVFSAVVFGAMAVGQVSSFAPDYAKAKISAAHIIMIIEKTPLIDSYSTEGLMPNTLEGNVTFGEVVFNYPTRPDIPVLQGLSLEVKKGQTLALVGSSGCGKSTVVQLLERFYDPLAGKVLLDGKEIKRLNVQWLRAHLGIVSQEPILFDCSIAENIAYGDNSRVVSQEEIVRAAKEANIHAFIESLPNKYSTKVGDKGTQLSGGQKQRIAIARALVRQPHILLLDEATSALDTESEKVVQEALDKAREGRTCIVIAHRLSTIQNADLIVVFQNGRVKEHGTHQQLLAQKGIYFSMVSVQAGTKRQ

[4] = test system: P-gp; conditions: mouse
[5] = test system: ABCB1 gene; conditions: human, in vivo
Protocol: The antidepressant plasma concentration was monitored to assure clinically efficient drug levels.
To this end, we created the residuals of linear regression with the dependent variable drug dose or plasma concentration and the independent variables age and gender. These residuals and SNP genotyping data were tested in an ANOVA analysis for statistical differences between the genotypes. Empiric p-values were calculated by applying 10^6 permutations (residuals randomly redistributed over the genotypes). Fisher's product method (FPM) includes the residuals of the dose or plasma concentration variables and the genotype variables from the SNPs rs2235067, rs4148740, rs2032583, rs4148739, rs11983225, rs2235040, rs12720067, rs7787082, rs10248420, rs10280101 and rs2235015.

[6] = male, FVB/N wild-type, in vivo, sc, 11 days
[7] = male, abcb1ab(−/−) on FVB/N background versus FVB/N wild-type, in vivo, sc, 11 days
[8] = male, abcb1ab(−/−) on FVB/N background, in vivo, sc, 11 days

CN(C)CCC=C1c2ccccc2CCc2ccccc21 [Amitriptyline]
P-gp substrate status at the blood-brain barrier, earlier studies [1]: substrates of P-gp at the blood-brain barrier

COc1ccc(C(CN(C)C)C2(O)CCCCC2)cc1 (centres unmarked) [Venlafaxine]
P-gp substrate status at the blood-brain barrier, earlier studies [1]: substrates of P-gp at the blood-brain barrier | brain concentrations, times higher in the mutant mice compared to wild-type littermates [2]: 1.7 times | cerebrum concentration, abcb1ab (−/−) [2]: 456.32 ng/g or ml | kidney concentration, abcb1ab (−/−) [2]: 1054.88 ng/g or ml | liver concentration, abcb1ab (−/−) [2]: 323.22 ng/g or ml | lung concentration, abcb1ab (−/−) [2]: 672.59 ng/g or ml | plasma concentration, abcb1ab (−/−) [2]: 70.57 ng/g or ml | spleen concentration, abcb1ab (−/−) [2]: 564.20 ng/g or ml | testes concentration, abcb1ab (−/−) [2]: 842.61 ng/g or ml | penetration into the brain (organ/plasma concentration ratio), times higher in animals lacking P-gp than in control animals [2]: 1.8 times | ratio (−/−)/(+/+), cerebrum [2]: 1.7 | ratio (−/−)/(+/+), kidney [2]: 1.0 | ratio (−/−)/(+/+), liver [2]: 1.0 | ratio (−/−)/(+/+), lung [2]: 0.9 | ratio (−/−)/(+/+), plasma [2]: 1.0 | ratio (−/−)/(+/+), spleen [2]: 1.0 | ratio (−/−)/(+/+), testes [2]: 1.2 | differences in testes/plasma ratio between knockout and control [2]: smaller but still significant differences | P-gp substrate status at the BBB ([2]; this study, administration over 11 days): substrates of P-gp at the BBB | cerebrum concentration, control [2]: 261.14 ng/g or ml | kidney concentration, control [2]: 1035.27 ng/g or ml | liver concentration, control [2]: 314.59 ng/g or ml | lung concentration, control [2]: 747.38 ng/g or ml | plasma concentration, control [2]: 71.37 ng/g or ml | spleen concentration, control [2]: 581.95 ng/g or ml | testes concentration, control [2]: 715.92 ng/g or ml

CN(C)CC(c1ccc(O)cc1)C1(O)CCCCC1 [D-Venlafaxine, O-desmethyl venlafaxine]
brain concentrations, times higher in the mutant mice compared to wild-type littermates [2]: 4.1 times | cerebrum concentration, abcb1ab (−/−) [2]: 36.99 ng/g or ml | kidney concentration, abcb1ab (−/−) [2]: 127.32 ng/g or ml | liver concentration, abcb1ab (−/−) [2]: 88.22 ng/g or ml | lung concentration, abcb1ab (−/−) [2]: 44.91 ng/g or ml | plasma concentration, abcb1ab (−/−) [2]: 5.98 ng/g or ml | spleen concentration, abcb1ab (−/−) [2]: 33.80 ng/g or ml | testes concentration, abcb1ab (−/−) [2]: 39.19 ng/g or ml | penetration into the brain (organ/plasma concentration ratio), times higher in animals lacking P-gp than in control animals [2]: 3.6 times | ratio (−/−)/(+/+), cerebrum [2]: 4.1 | ratio (−/−)/(+/+), kidney [2]: 1.2 | ratio (−/−)/(+/+), liver [2]: 1.1 | ratio (−/−)/(+/+), lung [2]: 0.9 | ratio (−/−)/(+/+), plasma [2]: 1.1 | ratio (−/−)/(+/+), spleen [2]: 1.1 | ratio (−/−)/(+/+), testes [2]: 1.3 | differences in testes/plasma ratio between knockout and control [2]: smaller but still significant differences | cerebrum concentration, control [2]: 8.97 ng/g or ml | kidney concentration, control [2]: 107.88 ng/g or ml | liver concentration, control [2]: 83.15 ng/g or ml | lung concentration, control [2]: 50.63 ng/g or ml | plasma concentration, control [2]: 5.50 ng/g or ml | spleen concentration, control [2]: 29.42 ng/g or ml | testes concentration, control [2]: 30.18 ng/g or ml

CCc1nn(CCCN2CCN(c3cccc(Cl)c3)CC2)c(=O)n1CCOc1ccccc1 [Nefazodone]
Inducer [3]: (x)

CCN(CC)CCCC(C)Nc1ccnc2cc(Cl)ccc12 (centres unmarked) [Chloroquine]
Inhibitor ([3]; inhibitor of ABCB1): (x)

Cc1ncc2n1-c1ccc(Cl)cc1C(c1ccccc1F)=NC2 [Midazolam]
Inhibitor [3]: (x)

CN1CCN2c3ncccc3Cc3ccccc3C2C1 (centres unmarked) [Mirtazapine]
cerebrum concentration, control [4, 6]: 34.90 ng/g or ml | intestine concentration, control [4, 6]: 19.96 ng/g or ml | kidney concentration, control [4, 6]: 70.93 ng/g or ml | liver concentration, control [4, 6]: 12.39 ng/g or ml | lung concentration, control [4, 6]: 61.47 ng/g or ml | plasma concentration, control [4, 6]: 7.66 ng/g or ml | spleen concentration, control [4, 6]: 67.54 ng/g or ml | testes concentration, control [4, 6]: 61.22 ng/g or ml | ratio (−/−)/(+/+), cerebrum [4, 7]: 1.5 | ratio (−/−)/(+/+), intestine [4, 7]: 1.2 | ratio (−/−)/(+/+), kidney [4, 7]: 1.3 | ratio (−/−)/(+/+), liver [4, 7]: 1.7 | ratio (−/−)/(+/+), lung [4, 7]: 1.7 | ratio (−/−)/(+/+), plasma [4, 7]: 1.5 | ratio (−/−)/(+/+), spleen [4, 7]: 1.3 | ratio (−/−)/(+/+), testes [4, 7]: 1.8 | cerebrum concentration, abcb1ab (−/−) [4, 8]: 51.31 ng/g or ml | intestine concentration, abcb1ab (−/−) [4, 8]: 24.58 ng/g or ml | kidney concentration, abcb1ab (−/−) [4, 8]: 91.22 ng/g or ml | liver concentration, abcb1ab (−/−) [4, 8]: 20.59 ng/g or ml | lung concentration, abcb1ab (−/−) [4, 8]: 105.36 ng/g or ml | plasma concentration, abcb1ab (−/−) [4, 8]: 11.17 ng/g or ml | spleen concentration, abcb1ab (−/−) [4, 8]: 86.19 ng/g or ml | testes concentration, abcb1ab (−/−) [4, 8]: 110.29 ng/g or ml | P-gp substrate status at the BBB [4]: not influenced by P-gp | differences in testes/plasma ratio between knockout and control ([4]; in vivo, sc): not

O=C(CCCN1CCC(O)(c2ccc(Cl)cc2)CC1)c1ccc(F)cc1 [Haloperidol]
Inhibitor ([3]; inhibitor of ABCB1): (x)

O=c1n(CCCN2CCN(c3cccc(Cl)c3)CC2)nc2ccccn12 [Trazodone]
Inducer [3]: (x)

CN(C)CCCC1(c2ccc(F)cc2)OCc2cc(C#N)ccc21 (centres unmarked) [Citalopram]
genotype-dependent differences in plasma levels of patients [5]: small significant difference | cerebrum concentration, control [4, 6]: 158.27 ng/g or ml | kidney concentration, control [4, 6]: 962.29 ng/g or ml | liver concentration, control [4, 6]: 238.02 ng/g or ml | lung concentration, control [4, 6]: 1238.71 ng/g or ml | plasma concentration, control [4, 6]: 106.71 ng/g or ml | spleen concentration, control [4, 6]: 446.96 ng/g or ml | testes concentration, control [4, 6]: 428.19 ng/g or ml | brain concentrations, times higher in the mutant mice compared to wild-type littermates [4, 7]: 3.0 times | cerebrum concentration, abcb1ab (−/−) [4, 8]: 480.93 ng/g or ml | kidney concentration, abcb1ab (−/−) [4, 8]: 795.74 ng/g or ml | liver concentration, abcb1ab (−/−) [4, 8]: 240.33 ng/g or ml | lung concentration, abcb1ab (−/−) [4, 8]: 1238.47 ng/g or ml | plasma concentration, abcb1ab (−/−) [4, 8]: 89.37 ng/g or ml | spleen concentration, abcb1ab (−/−) [4, 8]: 468.29 ng/g or ml | testes concentration, abcb1ab (−/−) [4, 8]: 687.92 ng/g or ml | P-gp substrate status at the BBB [4]: substrates of P-gp at the BBB | P-gp substrate status at the blood-brain barrier, earlier studies [1]: substrates of P-gp at the blood-brain barrier

Fc1ccc([C@@H]2CCNC[C@H]2COc2ccc3c(c2)OCO3)cc1 [Paroxetine]
P-gp substrate status at the blood-brain barrier, earlier studies [1]: substrates of P-gp at the blood-brain barrier
